According to patent US6096338A, “Delivery systems for hydrophobic drugs” (R. P. Scherer Corporation, priority 1994, dated 2000):
≈ marks a conversion by molar mass, not a printed value. Like-named read-outs stand apart in the source and are kept apart here.

Experiments:
[1] = Aqueous solubility of hydrophobic drugs in simulated intestinal fluid with bile and lipolytic products; assay type: physicochemical; settings: pH 6.5
Experimental: As stated above, the aqueous solubilities of hydrophobic drugs can be increased by incorporation into mixed micelles, formed by bile salts and lipolytic products of triglyceride oil digestion.
An aqueous medium was prepared to simulate the intestinal environment using the following components:
100 mls pH 6.5 Tris-maleate buffer solution containing:
The medium was prepared as described in the in vitro test procedure described above. To this simulated intestinal fluid a series of different components were added to evaluate the enhancement of the aqueous solubility of a range of hydrophobic drugs. The components which were added were:
Experiment (i) Nothing (control experiment)
15 mM crude ox gallbladder bile
15 mM crude ox gallbladder bile +
500 mg of medium chain lipolytic
products (137 mg capric acid, 98 mg
glyceryl monocaprate, 151 mg
caprylic acid and 114 mg glyceryl
500 mg of long chain lipolytic
products (307 mg oleic acid and
193 mg glyceryl monooleate). […]
Then 100 mg of drug, in powder form, was added to the reaction medium, the pH was adjusted to 6.5 and the medium was mixed for 21/2 hours. At this time a sample was taken from the vessel, filtered through a 0.2 micron filter and the quantity of drug in solution in the simulated intestinal fluid was determined by a specific HPLC method.

[2] = Aqueous solubility of progesterone in buffer, bile and lipolytic products; assay type: physicochemical; settings: for solubility at 1 h / solubility at 2 h: pH 6.5, 37° C.; for solubility at 1 h: read-out: Progesterone solubility after 60 minutes; for solubility at 2 h: read-out: Progesterone solubility after 120 minutes
Experimental: The solubility of progesterone was determined as follows:
The following five aqueous media were each prepared at 37° C. in the pH-Stat reaction vessel. The pH of each solution was adjusted to exactly 6.50 by the addition of an appropriate volume of 1.0 molar sodium hydroxide solution. […]
pH 6.50 tris-maleate buffer solution (containing 5 mM calcium chloride and 150 mM sodium chloride) pH 6.50 tris-maleate buffer solution+15 mM ox bile pH 6.50 tris-maleate buffer solution+15 mM ox bile+0.5% hydrophilic surfactant (Cremophor RH40) pH 6.50 tris-maleate buffer solution+15 mM ox bile+medium chain lipolytic products viz 53% by weight of caprylic acid-monocaprylate (2:1 molar ratio) and 47% by weight of capric acid-monocaprate (2:1 molar ratio) […]
pH 6.50 tris maleate buffer solution+15 mM ox bile+0.5% long chain lipolytic products viz oleic acid and monoolein (2:1 molar ratio) The following procedures was performed in triplicate. 15 mls of each of the above aqueous media were added to approximately 20 mgs (excess) of progesterone in 21 ml glass vials. Each vial was whirlmixed and then maintained at 37° C. in an ultrasonic bath for 120 minutes. After 60 and 120 minutes, 3 ml of each solution were extracted for progesterone solubility determination by HPLC, using the following standard procedure:
Each sample is filtered through a 13 mm 0.2 μm PVDF syringe filter (supplied by Whatman®). The first 1.5 ml of filtrate is discarded. 0.8 ml of the remaining filtrate is combined with 0.8 ml of acetonitrile (the mobile phase) in an amber glass vial. The vial is then hermetically sealed and shaken by hand and then analysed.

[3] = test system: Pancreatic lipase; test: In vitro lipolysis test (pH-stat titration) of fractionated coconut oil (FCO) with hydrophilic and lipophilic surfactants; assay type: biochemical; settings: FCO with Cremophor RH40 and lipophilic surfactant; FIG. 2
Excerpt: In Vitro Test for Determining the Suitability of Hydrophilic and Lipophilic Surfactants
Pancreatic lipase in the presence of colipase catalyses the lipolysis (also termed hydrolysis or de-esterification) of emulsified oils, a process that results in the production of fatty acids. The rate of fatty acid generation, and thus a measure of the rate of lipolysis, can be followed via continuous titration with a pH-stat as described below.
The pH-stat should comprise, for example, a pH-meter, an autoburette and an autotitration unit. These instruments can be obtained from Radiometer A/S, Copenhagen, Denmark as product numbers PHM82, ABU80 and TTT80, respectively.
The reaction should be performed in a glass thermostatted vessel maintained at 37.5±0.5° C. This vessel should have an internal diameter of approximately 7.5 cm and a height of approximately 7.0 cm. During an experiment the reaction vessel should be placed beneath the titration assembly unit so that the tips of the pH-electrodes and the stirrer are all at least 1 cm beneath the liquid level. […]
At time=30 minutes, titrate the pH up to precisely 6.50 (e.g. using 1.0M NaOH using the autotitrator). Record the volume of titrant dispensed, then re-zero the titrant display reading on the autotitrator. […]

[4] = Buffer + 15 mM ox bile + 0.5% MCLPs

## CC(C)(Sc1cc(C(C)(C)C)c(O)c(C(C)(C)C)c1)Sc1cc(C(C)(C)C)c(O)c(C(C)(C)C)c1 [Probucol, probucol]
[1]
  Buffer solubility: below the detection limit of assay

## CC(=O)[C@H]1CC[C@H]2[C@@H]3CCC4=CC(=O)CC[C@]4(C)[C@H]3CC[C@]12C [Progesterone, progesterone]
[2]; 0.5% long chain lipolytic products, vs bile salts
  Further increase in solubility with long chain lipolytic products: approximately 3 fold
[2]; 0.5% medium chain lipolytic products, vs bile salts
  Further increase in solubility with medium chain lipolytic products: approximately 3 fold
[2]; Buffer + 15 mM bile
  solubility at 1 h: 46.6 ± 0.47 µg/mL
  solubility at 2 h: 45.5 ± 1.08 µg/mL
[2]; Buffer + 15 mM ox bile + 0.5% LCLPs
  solubility at 1 h: 153 ± 6.17 µg/mL
[2]; [4]
  solubility at 1 h: 136 ± 11 µg/mL
  solubility at 2 h: 142 ± 6.31 µg/mL
[2]; aqueous buffer, Buffer alone
  solubility at 1 h: 10.1 ± 0.25 µg/mL (≈ 32.1 µM)
  solubility at 2 h: 9.47 ± 1.16 µg/mL (≈ 30.1 µM)
[2]; bile salts vs buffer alone
  Increase in solubility in bile salts compared to buffer alone: approximately 4.5 fold

## CCCCCCCC/C=C\CCCCCCCC(=O)O [oleic acid]
[3]
  Ability to overcome inhibitory effects of Cremophor RH40 on rate of FCO lipolysis: capable of overcoming the inhibitory effects
